Results: patent US20240158348A1, “HERBICIDAL CYCLIC AMIDES N-SUBSTITUTED WITH A HALOALKYLSULFONYLANILIDE GROUP” (FMC Corporation, priority 2021, published 2024)

How the values were obtained:
Assay type in all cases: in vivo
[1] = tested on: foxtail, giant (giant foxtail, Setaria faberi); experiment: Test C preemergence, giant foxtail; details: 0 is no effect, 100 is complete control
How it was run: (§1)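 Visual injury rating, 0 (no effect) to 100 (complete control), versus untreated controls after 10 or 12 days in the greenhouse. Compounds were formulated in non-phytotoxic solvent plus surfactant and applied either as a directed soil spray at sowing or onto emerged one- to two-leaf plants.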

[2] = tested on: pigweed, palmer (palmer amaranth, Amaranthus palmeri); experiment: Test C preemergence, palmer amaranth; details: 0 is no effect, 100 is complete control
How it was run: as §1

[3] = tested on: ragweed (common ragweed, Ambrosia artemisiifolia); experiment: Test C preemergence, ragweed; details: 0 is no effect, 100 is complete control
How it was run: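 Ratings run from 0, meaning no effect, up to 100, meaning complete control, judged by eye against untreated plants. Treatment was a directed soil spray before emergence or a postemergence spray on 2–10 cm seedlings, with evaluation 10 or 12 days later.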

[4] = tested on: blackgrass (Alopecurus myosuroides); experiment: Test C postemergence, blackgrass; details: 31 g ai/ha Postemergence; visual injury, 0 to 100 scale (0 no effect, 100 complete control)
How it was run: as §1

[5] = tested on: soybean (Glycine max); experiment: Test C postemergence, soybean; details: visual injury, 0 to 100 scale (0 no effect, 100 complete control)
[6] = tested on: wheat (Triticum aestivum); experiment: Test C postemergence, wheat; details: visual injury, 0 to 100 scale (0 no effect, 100 complete control)
How it was run: as §1

[7] = tested on: galium (catchweed bedstraw, Galium aparine); experiment: Test C postemergence, galium; details: for Galium plant response rating: 31 g ai/ha Postemergence, visual injury, 0 to 100 scale (0 no effect, 100 complete control); for Plant response rating (0 to 100 scale), Galium: 125 g ai/ha Postemergence, 0 is no effect, 100 is complete control
[8] = tested on: barnyardgrass (Echinochloa crusgalli); experiment: Test D flooded paddy test, barnyardgrass; design: key: 0 = no effect, 100 = complete control; details: 250 g ai/ha, Flood; applied to paddy water at 2-leaf stage; visual rating after 13 days; scale 0 (no effect) to 100 (complete control)
How it was run: (§2)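 Under 3 cm of standing water, kept constant after treatment, 2-leaf plants received compound via the paddy water. Ratings on a 0–100 control scale were assigned visually after 13 greenhouse days; a dash denotes no test result.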

[9] = tested on: ducksalad (Heteranthera limosa); experiment: Test D flooded paddy test, ducksalad; design: key: 0 = no effect, 100 = complete control; details: 250 g ai/ha, Flood; applied to paddy water at 2-leaf stage; visual rating after 13 days; scale 0 (no effect) to 100 (complete control)
How it was run: as §2

[10] = tested on: rice (Oryza sativa); experiment: Test D flooded paddy test, rice; design: key: 0 = no effect, 100 = complete control; details: 250 g ai/ha, Flood; applied to paddy water at 2-leaf stage; visual rating after 13 days; scale 0 (no effect) to 100 (complete control)
How it was run: as §2

| Compound | Plant response rating (0 to 100 scale), Foxtail, Giant ([1]; 31 g ai/ha Preemergence) | Plant response rating (0 to 100 scale), Foxtail, Giant ([1]; 125 g ai/ha Preemergence) | Plant response rating (0 to 100 scale), Pigweed, Palmer ([2]; 31 g ai/ha Preemergence) | Plant response rating (0 to 100 scale), Pigweed, Palmer ([2]; 125 g ai/ha Preemergence) | Plant response rating (0 to 100 scale), Ragweed ([3]; 31 g ai/ha Preemergence) | Plant response rating (0 to 100 scale), Ragweed ([3]; 125 g ai/ha Preemergence) | Blackgrass plant response rating [4] | Soybean plant response rating ([5]; 31 g ai/ha Postemergence) | Soybean plant response rating ([5]; 125 g ai/ha Postemergence) | Wheat plant response rating ([6]; 31 g ai/ha Postemergence) | Wheat plant response rating ([6]; 125 g ai/ha Postemergence) | Galium plant response rating [7] | Plant response rating (0 to 100 scale), Galium [7] | Plant response rating, Barnyardgrass [8] | Plant response rating, Ducksalad [9] | Plant response rating, Rice [10] |
| --- | --- | --- | --- | --- | --- | --- | --- | --- | --- | --- | --- | --- | --- | --- | --- | --- |
| Cc1cc(Cl)c(N(COC(=O)C(C)(C)C)S(=O)(=O)C(F)(F)F)cc1N1CCC(OC2CC2)C1=O (stereo not shown) [Compound 33] | 70 | 100 | 70 | 80 | 30 | 80 | 0 | 80 | 100 | 50 | 70 | 100 | 100 | 90 | 80 | 45 |
| Cc1c(NS(=O)(=O)C(F)(F)F)cc(N2CCCC(OC3CCC3)C2=O)c(C)c1F (stereo not shown) [Compound 36] | 50 | 100 | 90 | 100 | 70 | 90 | 20 | 70 | 70 | 60 | 60 | 60 | 80 | 0 | 65 | 0 |
| Cc1c(N2CCCC(OC3CC3)C2=O)cc(N(COC(=O)C(C)(C)C)S(=O)(=O)C(F)(F)F)c(C)c1F (stereo not shown) [Compound 37] | 20 | 90 | 50 | 90 | 0 | 90 | 0 | 60 | 70 | 10 | 60 | 60 | 90 | 90 | 70 | 0 |
| CC(=O)N(c1cc(N2CCC(OC3CC3)C2=O)c(C)cc1Cl)S(=O)(=O)C(F)(F)F (stereo not shown) [Compound 38] | 80 | 100 | 90 | 100 | 70 | 90 | 40 | 70 | 80 | 60 | 60 | 90 | 100 | 0 | 65 | 0 |
